The values below come from PMC8145986, “In Vitro Enzymatic and Kinetic Studies, and In Silico Drug-Receptor Interactions, and Drug-Like Profiling of the 5-Styrylbenzamide Derivatives as Potential Cholinesterase and β-Secretase Inhibitors with Antioxidant Properties” (Antioxidants, 2021).

As usually defined, the IC50 is the concentration that inhibits the measured activity by half. As usually defined, the Ki is a measure of affinity in units of concentration, obtained from inhibition or displacement.

One data set concerns the target T1, AChE (Homo sapiens, UniProt P22303).
T1 construct: purchased BioLegend (via Biocom Africa (Pty) Ltd.)
In words: biochemical. The following applies: mean ± SD of three independent experiments. The protocol:
The melting point values of the test compounds were recorded on a Thermocouple digital melting point apparatus (Mettler Toledo LLC, Columbus, OH, USA). The infrared (IR) spectra were recorded using the thin-film method on a Bruker VERTEX 70 FT-IR Spectrometer (Bruker Optics, Billerica, MA, USA) equipped with an ATR (diamond attenuated total reflectance) accessory. Merck kieselgel 60 (0.063–0.200 mm) (Merck KGaA, Frankfurt, Germany) was used as a stationary phase for column chromatography. The ^1H-NMR and ^13C-NMR spectra of the prepared compounds were obtained as deuterated dimethyl sulfoxide ((CD3)2SO) solutions using Agilent 500 MHz NMR spectrometer (Agilent Technologies, Oxford, UK) operating at 500 MHz and 125 MHz for ^1H and ^13C, respectively. The chemical shifts are quoted relative to tetramethylsilane (TMS) used as an internal reference standard (δ = 0.00 ppm) or a residual protonated solvent. The high-resolution mass spectra were recorded at an ionization potential of 70 eV using Micromass Autospec-TOF (double focusing high resolution) instrument (Waters Corp., Milford, MA, USA). The synthesis and analytical data for 2-amino-5-iodobenzamide (1) have been reported in our previous study. Recombinant human AChE (BioLegend) and BChE (Cloud-Clone Corp.) were purchased via Biocom Africa (Pty) Ltd. (Centurion, Pretoria, South Africa).
AChE and BChE were used to determine cholinesterase activities spectrophotometrically using […] as substrates, respectively, following a modification of the Ellman’s method, as described in our previous study, and the reactions were performed in triplicate at 37 °C in a 96-well plate. […] A multi-channel pipette was used for the addition of reagents to the wells.
To each well of a 96-well plate, 8.0 μL solution of the test compound, 2.0 μL of AChE (0.04 mg/mL), and 70 μL of Tris buffer (C4H11NO3, 50 mM, pH 7.7) were added sequentially. The assay mixture was pre-incubated for 30 min at room temperature, which was followed by the addition of 10 μL of 5,5′-dithiobis-(2-nitrobenzoic acid) (DTNB, 3 mM in Tris buffer, 50 mM, pH 7.7) and 10 μL of […] (AChI, 5 mM in tris buffer, 50 mM, pH 7.7) to each well to initiate the reaction. […] The average values obtained from the absorbance readings were used to determine the IC50 and standard deviation values using the Graph Pad Prism (version 5.0, GraphPad software Inc., San Diego, CA, USA).

The nature of data set [1]: DPPH radical scavenging assay. The following applies: read-out: IC50 (SD) DPPH. The protocol: The antioxidant activities of the test compounds against ascorbic acid (Sigma Aldrich, Saint Louis, MO, USA) as a positive control were evaluated using a 2,2-diphenyl-1-picrylhydrazyl (DPPH) radical scavenging assay developed by Zhu et al., as described in our previous study. Duplicate solutions (20 μL) of the test compounds and ascorbic acid in DMSO (final concentrations: 5, 10, 25, 50, and 100 μM) were added into each designated well of a 96-well plate. A solution of DPPH (0.20 mM) (20 μL) in methanol was added to each well, and the 96-well plate was wrapped with aluminium foil and incubated in the dark for 45 min. Five absorbance readings were recorded at 512 nm using a Varioskan flash microplate spectrophotometer reader. The average values obtained from the absorbance readings were used to determine the IC50 and standard deviation values.
In general terms: Loss of DPPH colour is used to gauge radical scavenging.

A further data set deals with T2, β-secretase (Homo sapiens, UniProt P56817).
T2 construct: purchased Thermo Fisher Scientific Corporation; host or cells: baculovirus-expressed
As to the kind of experiment: Enzyme kinetic study on β-secretase (Lineweaver-Burk and Dixon plots). Type of data set: biochemical. The protocol:
Compounds 2a and 3b were subjected to kinetic studies on β-secretase using substrate concentrations 150, 300, and 450 nM at increasing inhibitor concentrations (0, 4, 8, and 16 μM) following a method reported before. The fluorescence readings were recorded after every 1 s for 10 s at excitation and emission values of 545 nm and 590 nm, respectively. The Lineweaver–Burk plots (plots of the inverse of velocity against the inverse of the substrate concentration) were constructed to assess changes in enzymatic parameters. The Dixon plots were also prepared to determine the inhibitor constants, Ki.

Data set [2] is described as follows: Cytotoxicity (MTT assay) on Vero cells. As to conditions: monkey, Vero cells (normal monkey kidney cells). The protocol: (§1) The cytotoxicity activity of the compounds was evaluated using the 3-(4,5-dimethylthiazol-2-yl)-2,5-diphenyltetrazolium bromide (MTT) assay following a modification of a method by Mosmann. Normal monkey kidney cells (Vero cells) and adeno-carcinomic human epithelial cells (A549 cells) were maintained in Dulbecco’s modified Eagle’s medium (DMEM, Gibco) supplemented with 10% fetal bovine serum (FBS) and 1% penicillin/streptomycin in culture flasks and incubated at 37 °C in 5% CO2. […] Cells were seeded at 1 × 10^5 cells/well and incubated overnight to allow cell attachment. After 24 h, treatments were administered with different concentrations (0, 2.5, 5, 10, 25, 50, and 100 μM) of the compounds and doxorubicin (positive control). After 24 h of incubation, 20 μL of the MTT solution (5 mg/mL) was added in all the wells, which was followed by 4 h of incubation.
(Tetrazolium assays rely on reduction of a dye to a coloured formazan, in cell work by metabolically active cells.)

A further data set in a line: in vitro. As to conditions: human, A549 cells (adeno-carcinomic human epithelial cells). The protocol:
as §1

Another data set concerns Vero cells. In words: LPS-induced ROS production in Vero cells (H2DCF-DA). Type of data set: cell-based, monkey. The following applies: 10 μM compound, LPS 1 μg/mL, 24 h (Figure 9a). The protocol:
Mitochondrial ROS levels in Vero and A549 cell lines was measured using the 2′,7′-dichlorofluorescin diacetate (H2DCF-DA) (Sigma-Aldrich, St. Louis, MO, USA, Merck, Darmstadt, Germany), fluorescent probe. Cells (1 × 10^5) were seeded in 96 well plates and incubated overnight at 37 °C in 5% CO2. A minimum non-toxic concentration (10 μM) of compounds (2a and 3b) was added separately as treatment and further incubated for an hour, after which LPS (1 μg/mL) was added to induce the production of ROS. After 24 h of incubation, the media was aspirated, cells were rinsed with PBS, and followed by the addition of H2DCF-DA (10 μM) for 30 min in the dark. The absorbance of the fluorescence was measured using a microplate reader (VarioSkan Flash, Thermo Fisher Scientific, Finland) at 485 and 535 nm values of excitation and emission, respectively. Data was processed and analysed using ANOVA, which was followed by Duncan’s multiple comparison test.

T2 sequence (P56817 46-501): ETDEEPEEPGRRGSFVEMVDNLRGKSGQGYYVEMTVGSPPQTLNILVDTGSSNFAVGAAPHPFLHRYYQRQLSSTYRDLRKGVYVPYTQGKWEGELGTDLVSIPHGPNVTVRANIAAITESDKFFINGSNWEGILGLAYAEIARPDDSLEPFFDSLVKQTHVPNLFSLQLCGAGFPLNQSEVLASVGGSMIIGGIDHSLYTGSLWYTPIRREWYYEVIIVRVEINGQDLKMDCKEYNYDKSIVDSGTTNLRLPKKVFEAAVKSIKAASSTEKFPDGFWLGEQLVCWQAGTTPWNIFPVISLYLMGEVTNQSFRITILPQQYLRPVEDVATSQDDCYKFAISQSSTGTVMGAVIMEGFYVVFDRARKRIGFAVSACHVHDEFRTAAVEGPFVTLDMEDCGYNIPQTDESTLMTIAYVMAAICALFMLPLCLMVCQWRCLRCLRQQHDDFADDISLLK
T1 sequence (P22303 32-614): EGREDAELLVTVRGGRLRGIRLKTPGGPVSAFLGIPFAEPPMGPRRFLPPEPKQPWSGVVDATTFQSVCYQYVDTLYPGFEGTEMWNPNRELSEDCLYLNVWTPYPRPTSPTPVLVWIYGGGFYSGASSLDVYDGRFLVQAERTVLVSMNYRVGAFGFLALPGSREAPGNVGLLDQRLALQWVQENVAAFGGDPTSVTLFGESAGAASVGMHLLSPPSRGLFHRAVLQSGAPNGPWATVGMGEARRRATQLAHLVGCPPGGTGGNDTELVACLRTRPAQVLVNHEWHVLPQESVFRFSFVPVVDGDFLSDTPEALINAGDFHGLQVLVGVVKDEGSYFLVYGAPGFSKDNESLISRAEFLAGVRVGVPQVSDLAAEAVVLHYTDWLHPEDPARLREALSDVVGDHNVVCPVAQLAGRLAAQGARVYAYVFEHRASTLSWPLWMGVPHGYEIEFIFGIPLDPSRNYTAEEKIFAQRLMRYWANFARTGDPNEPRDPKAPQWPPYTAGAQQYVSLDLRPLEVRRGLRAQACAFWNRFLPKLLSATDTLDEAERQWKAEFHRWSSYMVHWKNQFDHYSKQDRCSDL

For `NC(=O)c1cc(/C=C/c2ccccc2)ccc1N` [Compound 2a, (E)-2-Amino-5-styrylbenzamide], the IC50 was 2.3 ± 0.11 µM on AChE and 5.8 ± 0.32 µM in data set [1]. Besides, at β-secretase, the “mode of inhibition β-secretase” value is on record as “mixed mode”. For the same compound, the Ki at β-secretase (read-out: Ki (Dixon plot) β-secretase) worked out at 3.44 ± 0.3 µM. Further, the IC50 at 24 h in data set [2] turned out to be 163 ± 0.55 µM; in the data set “in vitro”, 35.4 ± 0.13 µM. In the data set with Vero cells, the “suppression of LPS-induced ROS” value is “about 60%”.
